The source of these data is patent publication US10752616B2, “Bicycloheteroaryl-heteroaryl-benzoic acid compounds as retinoic acid receptor beta (RARβ) agonists” (King's College London, priority 2014, dated 2020).

In experiment [1] the target is T1, RARβ (Mus musculus (Mouse), UniProt P22605). Description: Transactivation assay for RARβ (gal4-RAR fusion, pFR-luc reporter, COS-7 cells), Table 2. The experiment is classed as cell-based. The note with it: COS-7 reporter, mean of three or more determinations, species not stated (method: mouse or human). Here is the method:
(§1) Transcriptional transactivation assays were performed with gal4 fusion receptor constructs, created using each of the RAR ligand binding domains of either mouse or human, co-transfected with the pFR-luc (Stratagene) reporter construct in COS-7 cells.
(§2) Briefly, on day 1, 96 well plates were seeded with 8000 cells per well then left to recover overnight. On day 2, the cells were co-transfected with 100 ng of reporter plasmid and 10 ng of the appropriate receptor plasmid per well using lipofectamine (Invitrogen). On day 3, the lipofectamine containing media was replaced by a DMEM without phenol red, followed by the addition of test compound dissolved in 1 μL of DMSO to each well's 100 μL total volume. Finally, on day 4, the cells were lysed and their luciferase substrate was provided by the BrightGlo™ reagent (Promega), the plates were then read on the MicroBeta TriLux™ (Perkin Elmer).
(§3) Data for test compounds are quoted as EC50 values. Where replicate data has been generated, the data are quoted as the mean EC50 from the separate experiments.
(§4) EC50's values are reported as mean values of three or more determinations.

Experiment [2] has as its target T2, RARα (Mus musculus (Mouse), UniProt P11416). Description: Transactivation assay for RARα (gal4-RAR fusion, pFR-luc reporter, COS-7 cells), Table 2. Type of experiment: cell-based. As to conditions: for EC50: Table 2, COS-7 reporter, mean of three or more determinations, inactive = no agonist action at highest concentration tested. The procedure: as §1, §2, §3, §4

The target in experiment [3] is T3, RARγ (Mus musculus (Mouse), UniProt P18911). Description: Transactivation assay for RARγ (gal4-RAR fusion, pFR-luc reporter, COS-7 cells), Table 2. The experiment is classed as cell-based. As to conditions: for EC50: Table 2, COS-7 reporter, mean of three or more determinations, inactive = no agonist action at highest concentration tested. The procedure:
as §1, §2, §3, §4

Experiment [4] has as its target T1, RARβ. As to the kind of experiment: Transactivation assay, mouse RARβ. Type of experiment: cell-based. The note with it: Table 3, read-out: RARβ potency - EC50. Here is the method:
as §1, §2, §3

Experiment [5] addresses T2, RARα. As to the kind of experiment: Transactivation assay, mouse RARα. The note with it: Table 3. The experiment is classed as cell-based. The procedure:
as §1, §2, §3

The target of experiment [6] is T3, RARγ. As to the kind of experiment: Transactivation assay, mouse RARγ. The experiment is classed as cell-based. As to conditions: Table 3. Here is the method: as §1, §2, §3
The target in experiment [7] is T4, RARβ (Homo sapiens (Human), UniProt P10826). As to the kind of experiment: Transactivation assay, human RARβ. Type of experiment: cell-based. As to conditions: Table 3; Human; read-out: RARβ potency - EC50. Here is the method:
as §1, §2, §3
Target sequence in this assay (P10826 183-417): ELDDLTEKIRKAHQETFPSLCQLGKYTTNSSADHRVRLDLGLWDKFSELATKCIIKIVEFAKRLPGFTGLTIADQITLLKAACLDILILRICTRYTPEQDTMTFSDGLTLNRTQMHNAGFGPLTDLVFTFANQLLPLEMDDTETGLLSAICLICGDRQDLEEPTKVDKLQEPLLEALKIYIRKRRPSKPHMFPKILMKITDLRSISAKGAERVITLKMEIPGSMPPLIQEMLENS

The target in experiment [8] is T5, RARα (Homo sapiens (Human), UniProt P10276). Description: Transactivation assay, human RARα. Type of experiment: cell-based. The note with it: Table 3; Human. Here is the method:
as §1, §2, §3
Target sequence in this assay (P10276 183-417): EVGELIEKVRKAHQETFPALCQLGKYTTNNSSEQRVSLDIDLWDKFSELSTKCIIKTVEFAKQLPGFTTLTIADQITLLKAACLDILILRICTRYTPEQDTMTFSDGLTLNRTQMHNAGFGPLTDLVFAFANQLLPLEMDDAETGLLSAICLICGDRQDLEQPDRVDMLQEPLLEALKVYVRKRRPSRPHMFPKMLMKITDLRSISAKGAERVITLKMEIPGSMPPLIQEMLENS

The target of experiment [9] is T6, RARγ (Homo sapiens (Human), UniProt P13631). Description: Transactivation assay, human RARγ. Type of experiment: cell-based. The note with it: Table 3; Human. Here is the method: as §1, §2, §3
Target sequence in this assay (P13631 185-419): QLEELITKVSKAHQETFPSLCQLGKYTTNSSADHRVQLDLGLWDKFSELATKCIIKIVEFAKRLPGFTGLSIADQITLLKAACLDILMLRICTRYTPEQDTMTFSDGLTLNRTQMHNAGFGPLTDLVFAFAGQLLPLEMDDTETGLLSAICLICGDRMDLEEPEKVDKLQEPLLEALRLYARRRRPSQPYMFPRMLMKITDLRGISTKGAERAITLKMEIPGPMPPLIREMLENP
The subject of experiment [10] is rats with severed sensory roots. Description: Severed and re-implanted sensory roots (DRG, left forelimb) in rats; sticky tape tests. The experiment is classed as in vivo. The note with it: rat, 1 mg/kg two days after lesion, then three times a week. Here is the method: In another example of nerve injury, the four sensory roots from each of four DRG at the level of the left forelimb were severed and re-implanted into the spinal cord.
FIGS. 2A and 2B show two graphs of the time taken for rats to sense sticky tape (FIG. 2A) and to remove sticky tape (FIG. 2B) that is placed on its injured forepaw, as a function of the number of weeks after injury. Rats were treated with 1 mg/kg of the test compound or vehicle two days after lesion, and then three times a week for the period of the experiment. Error bars show SEM. ***P<0.001, students t test, n=3-4 rats for each treatment group. At weeks 3, 4, and 5, there was significant difference between the rats treated with RARβ agonist as compared to rats treated with other retinoid agonists and vehicle.

The target in experiment [11] is T5, RARα. As to the kind of experiment: Binding affinity from Yoshimura et al., 2000, RARα. As to conditions: ratio of relative IC50 (binding), Table 5.
Target sequence in this assay (P10276 whole entry, species assumed): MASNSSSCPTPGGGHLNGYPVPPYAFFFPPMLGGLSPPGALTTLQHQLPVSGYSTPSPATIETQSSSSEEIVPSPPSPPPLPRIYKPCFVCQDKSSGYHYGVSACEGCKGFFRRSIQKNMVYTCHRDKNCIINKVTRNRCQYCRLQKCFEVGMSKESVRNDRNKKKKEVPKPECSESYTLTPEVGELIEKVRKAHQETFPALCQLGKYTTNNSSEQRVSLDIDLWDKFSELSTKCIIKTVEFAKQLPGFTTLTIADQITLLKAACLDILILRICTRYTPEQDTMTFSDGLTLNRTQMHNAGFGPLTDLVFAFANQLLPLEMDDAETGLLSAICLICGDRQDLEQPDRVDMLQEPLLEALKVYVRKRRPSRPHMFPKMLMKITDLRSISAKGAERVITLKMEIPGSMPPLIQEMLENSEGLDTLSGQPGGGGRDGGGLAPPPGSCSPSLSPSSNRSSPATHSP
Experiment [12] addresses T5, RARα. Description: Subtype-specific transactivation from Yoshimura et al., 2000, RARα. The note with it: ratio of relative EC30 (transactivation), Table 6. The experiment is classed as cell-based.
Target sequence in this assay (P10276 whole entry, species assumed): as above
Experiment [13] deals with T6, RARγ. As to the kind of experiment: Subtype-specific transactivation from Yoshimura et al., 2000, RARγ. The experiment is classed as cell-based. As to conditions: ratio of relative EC30 (transactivation), Table 6.
Target sequence in this assay (P13631 whole entry, species assumed): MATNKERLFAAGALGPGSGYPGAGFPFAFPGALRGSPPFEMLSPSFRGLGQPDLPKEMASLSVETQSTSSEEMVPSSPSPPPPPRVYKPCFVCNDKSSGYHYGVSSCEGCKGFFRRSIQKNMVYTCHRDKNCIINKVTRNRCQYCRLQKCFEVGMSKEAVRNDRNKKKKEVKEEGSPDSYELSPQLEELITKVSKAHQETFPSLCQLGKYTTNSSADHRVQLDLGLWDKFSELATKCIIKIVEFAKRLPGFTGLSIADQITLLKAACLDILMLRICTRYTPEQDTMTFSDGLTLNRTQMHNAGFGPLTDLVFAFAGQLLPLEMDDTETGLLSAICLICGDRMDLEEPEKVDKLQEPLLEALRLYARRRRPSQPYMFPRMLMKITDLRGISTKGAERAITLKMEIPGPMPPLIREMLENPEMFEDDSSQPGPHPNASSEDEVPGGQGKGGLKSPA
For experiment [14], the target named is T5, RARα. As to conditions: transactivation, relative to atRA = 1; cited from earlier work.
Target sequence in this assay (P10276 whole entry, species assumed): as the sequence (P10276 whole entry, species assumed) above
The target of experiment [15] is T4, RARβ. The note with it: transactivation, relative to atRA = 1; cited from earlier work.
Target sequence in this assay (P10826 whole entry, species assumed): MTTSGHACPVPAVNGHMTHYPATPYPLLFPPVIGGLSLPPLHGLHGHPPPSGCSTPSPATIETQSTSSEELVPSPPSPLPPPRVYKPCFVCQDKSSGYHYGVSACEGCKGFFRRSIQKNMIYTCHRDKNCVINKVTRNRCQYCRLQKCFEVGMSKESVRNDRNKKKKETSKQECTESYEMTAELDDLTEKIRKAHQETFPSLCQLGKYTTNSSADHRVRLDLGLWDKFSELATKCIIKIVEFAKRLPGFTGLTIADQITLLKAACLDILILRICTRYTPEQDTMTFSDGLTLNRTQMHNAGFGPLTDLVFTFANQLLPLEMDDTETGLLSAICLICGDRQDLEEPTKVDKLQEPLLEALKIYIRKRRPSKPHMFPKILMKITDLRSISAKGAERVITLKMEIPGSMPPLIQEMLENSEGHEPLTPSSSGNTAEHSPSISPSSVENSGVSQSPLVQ
Experiment [16] addresses T6, RARγ. As to conditions: transactivation, relative to atRA = 1; cited from earlier work.
Target sequence in this assay (P13631 whole entry, species assumed): as the sequence (P13631 whole entry, species assumed) above
Another experiment relates to cerebellar neurons. As to the kind of experiment: Neurite outgrowth assay, cerebellar neurons in the presence of myelin/MAG. The experiment is classed as cell-based, rat. As to conditions: cerebellar neurons, in the presence of MAG/myelin, with CD2019. The procedure:
Cerebellar neurons isolated from post-natal day 3 rat pups were cultured over monolayers of parental 3T3 cells in control media, or media supplemented with a recombinant MAG-Fc chimera (R&D Systems) used at a final concentration of 20 μg/mL MAG-Fc. The monolayers were established for 24 hours prior to addition of the neurons and the co-cultures were maintained for approximately 21 hours. Following careful fixation with 4% paraformaldehyde, the neurons were immuno-stained with a GAP-43 antibody (from Graham Wilkin, Imperial College), dilution of 1:500, and the mean length of the longest neurite per cell was measured for approximately 120-150 neurons as previously described (see, e.g., Williams et al., 2005). DRG and cortical explants were obtained from adult rats, they were cultured in cellogen as previously described (see, e.g., Corcoran and Maden, 1999). Three explants per treatment were used. Neurite outgrowth was assessed 3 days later by immunohistochemistry with NF200 (Sigma, dilution of 1:200). The average lengths of the neurites were measured using image pro plus software. Media consisted of DMEM-F12 (Invitrogen) containing N2 (Invitrogen) supplemented with glucose (33 mM) and glutamine (2 mM).

Entries after “also recorded” stand apart in the source; their conditions may differ.

T2 sequence (P11416 183-417): as the sequence (P10276 183-417) above, with R165K counted along it
T3 sequence (P18911 185-419): as the sequence (P13631 185-419) above
T1 sequence (P22605 210-444): as the sequence (P10826 183-417) above

Regarding `Cc1ccc(C)c2oc(-c3nc(-c4ccc(C(=O)O)cc4)no3)cc12` [BHBA-001, 4-(5-(4,7-Dimethylbenzofuran-2-yl)-1,2,4-oxadiazol-3-yl)benzoic acid], the EC50 (usually the concentration at which the effect is half-maximal) at RARβ [1] amounted to 1.94 nM; on RARα [2], 26 nM; at RARγ [3] it was 11 nM; at RARβ [4], 1.94 nM; on RARβ [7] it was 2.05 nM. Also, the “Selectivity over RARα” value on RARα [5] is reported as 14-fold; on RARα [8], 23-fold. Besides, the “Selectivity over RARγ” value on RARγ [6] is given as 6-fold; at RARγ [9], 5-fold. Further, in [10], the “Behavioural tests after 5 weeks (severed sensory roots)” value is “performed as well as non-lesioned animals”.
`O=C(O)c1ccc(-c2ccc(-c3cc4c(C(F)(F)F)ccc(F)c4o3)[nH]2)cc1` [1f]: the RARα/RARβ ratio was 0.0038 at RARα [11] and 0.034 on RARα [12]. Moreover, the RARγ/RARβ ratio on RARγ [13] amounted to 12.9. For the same compound, the “RARα relative EC30” value on RARα [14] is recorded as 0.29 ± 0.04. Also, the “RARβ relative EC30” value on RARβ [15] was 8.5 ± 0.4. Further, the “RARγ relative EC30” value on RARγ [16] was 110 ± 20.
Turning to `Cc1ccc(C)c2oc(-c3ccc(-c4ccc(C(=O)O)cc4)[nH]3)cc12` [1b], the RARα/RARβ ratio was determined as 0.0029 at RARα [11] and 0.148 at RARα [12]. Moreover, the RARγ/RARβ ratio at RARγ [13] is on record as 9.60. Also, the “RARα relative EC30” value on RARα [14] is recorded as 0.37 ± 0.02. Besides, the “RARβ relative EC30” value on RARβ [15] is on record as 25 ± 12. Besides, the “RARγ relative EC30” value on RARγ [16] is 240 ± 30.
Take `O=c1cc(N2CCOCC2)oc2c(-c3ccccc3)cccc12` [LY295002]: the “Effect on RARβ agonist (CD2019) mediated neurite outgrowth” value with cerebellar neurons is recorded as “neurite outgrowth was severely impeded”.
`CCCCCCOC(=O)[C@]1(O)C[C@@H]2O[C@@]1(C)n1c3ccccc3c3c4c(c5c6ccccc6n2c5c31)C(=O)NC4` [KT5720]: the “Effect on RARβ agonist (CD2019) mediated neurite outgrowth” value in the experiment with cerebellar neurons is “little or no effect; also recorded: does not affect”.
Take `Cc1ccc(C)c2oc(-c3nc(-c4ccc(C(=O)O)cc4Cl)no3)cc12` [BHBA-002, 3-Chloro-4-(5-(4,7-dimethylbenzofuran-2-yl)-1,2,4-oxadiazol-3-yl)benzoic acid]: the EC50 at RARβ [1] turned out to be 11.4 nM; on RARα [2] it was 136 nM; at RARγ [3], 29 nM; on RARβ [4], 11.5 nM; on RARβ [7], 21.4 nM. The RARα/RARβ ratio at RARα [2] (fold-selectivity for RARβ over RARα, >1 = selective for RARβ) amounted to 12. Besides, the RARγ/RARβ ratio on RARγ [3] (fold-selectivity for RARβ over RARγ, >1 = selective for RARβ) was 2.5. In addition, the “Selectivity over RARα” value on RARα [5] and on RARα [8] was 12-fold each time. In addition, the “Selectivity over RARγ” value at RARγ [6] is recorded as 3-fold; at RARγ [9], 2-fold.
With `O=C(O)c1ccc(-c2ccc(-c3cc4c(Cl)ccc(Cl)c4o3)[nH]2)cc1` [1c], the RARα/RARβ ratio at RARα [11] is reported as 0.0022; at RARα [12], 0.006. Further, the RARγ/RARβ ratio on RARγ [13] turned out to be 7.45. Besides, on RARα [14], the “RARα relative EC30” value was 0.70 ± 0.15. In addition, the “RARβ relative EC30” value on RARβ [15] is 110 ± 30. Besides, the “RARγ relative EC30” value on RARγ [16] is 820 ± 290.
